For two substances, 3-day cell counts, 7-day cell counts and 7-day outgrowth results are on record in patent EP0326579B1, “IMPROVEMENT OF THE BIOCOMPATIBILITY OF SOLID SURFACES” (BIO-METRIC SYSTEMS, INC., priority 1986, dated 1988).

The test system of assay [1] is Bovine endothelial cells. Nature of the assay: Attachment of endothelial cells to modified plastic surfaces (viable cell counts, trypan blue). In kind it is cell-based. The following applies: treated polyvinyl chloride surface; number of viable cells attached to each piece. On the procedure: B. Attachment of Bovine Endothelial Cells to Modified Plastic Surfaces. Bovine endothelial cells were collected from fetal animals 8-24" in length. Cornea, aorta and umbilical endothelial cells were harvested aseptically. Cells were grown in a 5% CO₂ incubator at 37°C in a known high glucose cell growth medium such as Dulbecco's modified Eagle's medium (described in R. Dulbecco and G. Freeman, Virology, Vol. 8:396 (1959) and J. D. Smith, G. Freeman, M. Vogt and R. Dulbecco, Virology, Vol. 12:185-196 (1960)) with 25mmole HEPES buffer, 10% bovine calf serum, and 2.5 micrograms amphotericin B/ml (the "growth media"). Once the plates, tubes or sheets were prepared; cell cultures were prepared from primary cell lines. The cells were detached from the cell culture surface with a 0.25% solution of trypsin and resuspended in the growth media. Cells were then counted using a trypan blue (0.4%) solution and a hemocytometer. Various concentrations of cells were layered on the prepared materials. Cell attachment was monitored for various time periods from 5 minutes to 14 days. Attachments were determined by at least two methods. In one, sample materials were removed from culture media and washed 2 times with sterile saline. Cell stains were then applied and total cells on the surface were counted. A second method was to trypsinize the cells off the surface with a trypsin solution and count using the trypan blue method. Representive results of the attachment and outgrowth of endothelial cells on precoated polyvinyl chloride plastic pieces are reported in Table 3. The number of viable cells attached to each piece were determined by trypan blue staining procedures.

Assay [2] concerns Bovine endothelial cells. Nature of the assay: Outgrowth measurement using endothelial cells from a point of origin. In kind it is cell-based. The following applies: treated polyvinyl chloride surface.

Consider “ANP-EAC-COL: Human placenta Type IV collagen coupled to ANP-EAC-NOS (photolabeled collagen)”, for which, in assay [1], the 3-day cell counts is 14500 and the 7-day cell counts stood at 15833. Moreover, the 7-day outgrowth in assay [2] is on record as 1.0-3.0 mm.
In assay [1], “BBA-COL: Human placenta Type IV collagen coupled to the NOS ester of benzoylbenzoic acid” showed a 3-day cell counts of 5749 and a 7-day cell counts of 21500. The 7-day outgrowth in assay [2] was 2.5-4.0 mm.
